Data reported in patent US20260248947A1, “Methods of Treating Cancer Using Anti-HER2 Antibody-Drug Conjugates and HER2 Kinase Inhibitors” (Seagen Inc., priority 2023, published 2026).

How the values were obtained:
[1] = test system: GA6821 (IHC 1+) gastric cancer PDX; assay: Tumor volume / normalized AUC in gastric cancer PDX model; format: in vivo, Mice; conditions: GA6821 (FIGS. 12C, 12D); tucatinib 50 mg/kg oral twice daily, DV 2 mg/kg intravenous single dose
Text: (§1) FIGS. […] show the effects of combining DV and tucatinib vs. DV as a single agent in gastric cancer patient-derived xenograft (PDX) models with varying HER2 expression levels: GA13745 (IHC 1+; FIGS. 12A, 12B), GA6821 (IHC 1+; FIGS. 12C, 12D), CTG-0148 (IHC 1+; FIGS. 12E, 12F), CTG-3036 (IHC 2+; FIGS. 12G, 12H), CTG-3033 (IHC 3+; FIGS. 12I, 12J), and GA3102 (IHC 3+; FIGS. 12K, 12L). Treatment with T-DXd, a HER2-directed ADC, was also included in the study. Tumor volume data shown as mean±SEM. For each model, tumor growth was evaluated using a normalized area under the curve (AUC) metric (see, Guo, S. et al. (2019) BMC Cancer 19, 718) (FIGS. 12A, 12C, 12E, 12G, 12I, 12K). AUC was calculated for each model for the duration of the experiment, then compared by one-way ANOVA followed by Tukey's post-hoc test. The box-and-whisker plots represent the median and range for each treatment group (FIGS. 12B, 12D, 12F, 12H, 12J, 12L). […]
(§2) DV and tucatinib were tested as monotherapies and in combination in PDX models with varying HER2 expression levels. […] Mice (n=10/group) were treated with tucatinib (50 mg/kg oral, twice daily), DV (2 mg/kg, intravenous, single dose), a combination of tucatinib and DV, or T-DXd (2 mg/kg, intravenous, single dose), and tumor volume was measured over time.

[2] = test system: GA3102 (IHC 3+) gastric cancer PDX; assay: as above; format: in vivo, Mice; conditions: GA3102 (FIGS. 12K, 12L); tucatinib 50 mg/kg oral twice daily, DV 2 mg/kg intravenous single dose
Text: as §1, §2

HER2 = HER2 (Homo sapiens, UniProt P04626); assay: Internalization of anti-HER2 ADCs DV, T-DM1 and T-DXd; format: cell-based; design: endogenous in cells; host or cells: SK-BR-3, BT-474, HCC-202, EFM-192C, BT-483, CAMA-1, NCI-N87, OE19, RERF-GC-1B; conditions: results considered preliminary
Description: The internalization experiments were conducted by detecting an antibody-bound pH sensitive probe using automated time-lapse microscopy. Briefly, breast cancer cell lines SK-BR-3, BT-474, HCC-202, EFM-192C, BT-483, and CAMA-1 and gastric cancer cell lines NCI-N87, OE19, and RERF-GC-1B were seeded in 96-well flat clear-bottom black tissue culture-treated microplates (Corning, cat #3603). Cells were plated at 1.5×10^4-2.5×10^4 cells/200 μL/well in growth medium and allowed to adhere overnight at 37° C. Disitamab, trastuzumab, and isotype control antibody (human IgG) were labeled with IncuCyte Fabfluor-pH Red Antibody Labeling Reagent (Essen Bioscience, cat #4722) according to the manufacturer's protocol. Volumes of the test antibodies, Fabfluor reagent and medium required were calculated at 2× the final assay concentration, and the Fabfluor reagent was added at a molar ratio of 1:3 to the antibody. Fabfluor dye fluoresces only upon exposure to an acidified compartment, namely endocytic vesicles and lysosomes, signifying internalization and intracellular processing of the ADC. Antibody and Fabfluor were mixed gently and incubated at 37° C. for 15 minutes. Media containing Fabfluor-labeled disitamab or trastuzumab ([…] final concentration) was added to cells. The plates were arranged on microplate trays in the IncuCyte SX3 system (Essen Bioscience), and scans were acquired using the Standard protocol. Phase data and red channel data (acquisition time set to 400 ms) were collected, with 4 images per well every 30 minutes for the first 6 hours and every 2 hours after that for up to 40 hours with the objective set at 10×. Quantification of fluorescence signal intensity was performed using the IncuCyte software analysis tool.
Internalization of anti-HER2 ADCs DV, T-DM1, and T-DXd (two HER2-targeting ADCs with trastuzumab as a backbone) was also tested in breast cancer cell lines SK-BR-3, HCC-202, and BT-483.

[3] = test system: HER2-low breast cancer patient-derived xenograft (PDX) models CTG-1520 (IHC 0), CTG-0012 (IHC 1+), CTG-0670 (IHC 2+); assay: Tumor volume in HER2-low breast cancer PDX models; format: in vivo, Mice; conditions: single intravenous dose 0.3, 1, 2 or 5 mg/kg; in a subset of the models
Description: First, the anti-tumor effect of DV as a monotherapy was tested in three PDX models with varying HER2 expression levels. Three breast cancer PDX models were used: CTG-1520 (IHC 0), CTG-0012 (IHC 1+), and CTG-0670 (IHC 2+). Mice (n=10/group) were treated with the indicated concentrations of DV (intravenous, single dose), and tumor volume was measured over time. […] Dashed lines represent carry-over of tumor volumes from individual animals that were removed from study when their tumors reached maximum allowable size (less than 3/10 animals per group).
Next, DV and tucatinib were tested as monotherapies and in combination in the three PDX models. Mice (n=10/group) were treated with the indicated concentrations of tucatinib (50 mg/kg oral, twice daily), DV (1 or 2 mg/kg, intravenous, single dose), or a combination of tucatinib and DV, and tumor volume was measured over time. […] Dotted lines represent carry-over of tumor volumes from individual animals that were removed from study when their tumors reached maximum allowable size (less than 3/10 animals per group).

## disitamab vedotin [DV]
[1]
  anti-tumor activity compared to untreated control (normalized AUC tumor growth metric): significant anti-tumor activity
[2]
  anti-tumor activity compared to untreated control (normalized AUC tumor growth metric): significant anti-tumor activity
HER2; BT-483
  internalization compared to T-DM1 and T-DXd: enhanced internalization
HER2; HCC-202
  internalization compared to T-DM1 and T-DXd: enhanced internalization
HER2; SK-BR-3
  internalization compared to T-DM1 and T-DXd: enhanced internalization
[3]
  anti-tumor effects (tumor volume) of DV monotherapy: anti-tumor effects in a dose-dependent manner
